Measurements as given in ChEMBL document CHEMBL1201862, “PubChem BioAssay data set” (2004).
Calls of active or inactive are those of the source.

Assays:
[1] = test system: H9c2; assay: cells; format: functional, cell-based; details: Rattus norvegicus, H9c2, Myocardium;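 also: confirmatory concentration-response retest of ultra-high-throughput screening hits for modulation of myocardial damage; cell death induced by hydrogen peroxide oxidative stress; compound pretreatment for 60 min then peroxide exposure for 2 h; potency is for protecting the cells against peroxide damage rather than for killing them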
[2] = biological target: Melanocortin receptor 4 (Homo sapiens, UniProt P32245); assay: MC4R antagonist potency on cAMP, dose response, cell-based, TR-FRET, biased antagonists (AID 602298); format: functional;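 also: antagonist potency against agonist-stimulated cAMP production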
Sequence of Melanocortin receptor 4 (P32245 whole entry): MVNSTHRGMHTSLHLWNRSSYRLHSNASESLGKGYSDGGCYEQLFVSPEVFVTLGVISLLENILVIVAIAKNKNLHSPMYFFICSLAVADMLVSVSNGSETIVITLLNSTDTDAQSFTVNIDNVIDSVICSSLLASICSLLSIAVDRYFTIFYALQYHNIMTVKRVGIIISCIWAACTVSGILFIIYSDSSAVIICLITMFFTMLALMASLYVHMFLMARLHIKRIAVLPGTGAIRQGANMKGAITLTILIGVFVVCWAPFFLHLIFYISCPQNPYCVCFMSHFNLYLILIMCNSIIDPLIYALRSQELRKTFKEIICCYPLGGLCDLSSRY

[3] = nonselective inhibitors of cellular cAMP signaling, dose response, counter-screen for MC4R biased antagonist project, cell-based, TR-FRET cAMP detection (AID 602305); format: functional;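 also: U2OS cells stimulated with forskolin near its EC80 as the cAMP inducer; potency is for inhibition of forskolin-stimulated cAMP signaling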
[4] = biological target: Tyrosine-protein kinase Lck (Homo sapiens, UniProt P06239); format: functional;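 also: lck was assayed as one member of a kinase panel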
Sequence of Tyrosine-protein kinase Lck (P06239 whole entry): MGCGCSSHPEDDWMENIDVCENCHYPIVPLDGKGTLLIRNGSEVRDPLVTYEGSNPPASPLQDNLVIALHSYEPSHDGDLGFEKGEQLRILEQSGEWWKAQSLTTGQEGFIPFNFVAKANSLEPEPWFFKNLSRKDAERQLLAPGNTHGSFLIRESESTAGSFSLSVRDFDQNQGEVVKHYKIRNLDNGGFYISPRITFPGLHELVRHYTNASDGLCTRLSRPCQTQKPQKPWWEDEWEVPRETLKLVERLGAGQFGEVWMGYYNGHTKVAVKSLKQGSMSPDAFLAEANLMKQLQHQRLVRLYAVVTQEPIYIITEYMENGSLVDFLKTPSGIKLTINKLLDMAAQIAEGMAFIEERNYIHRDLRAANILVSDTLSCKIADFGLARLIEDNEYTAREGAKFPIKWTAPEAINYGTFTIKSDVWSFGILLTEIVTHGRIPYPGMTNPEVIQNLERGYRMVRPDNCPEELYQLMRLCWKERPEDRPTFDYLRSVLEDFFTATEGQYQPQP

[5] = biological target: Tyrosine-protein kinase BTK (Homo sapiens, UniProt Q06187); format: functional
[6] = biological target: Serine/threonine-protein kinase N2 (Homo sapiens, UniProt Q16513); format: functional
[7] = biological target: Serine/threonine-protein kinase TAO1 (Homo sapiens, UniProt Q7L7X3); format: functional
Sequence of Serine/threonine-protein kinase TAO1 (Q7L7X3 whole entry): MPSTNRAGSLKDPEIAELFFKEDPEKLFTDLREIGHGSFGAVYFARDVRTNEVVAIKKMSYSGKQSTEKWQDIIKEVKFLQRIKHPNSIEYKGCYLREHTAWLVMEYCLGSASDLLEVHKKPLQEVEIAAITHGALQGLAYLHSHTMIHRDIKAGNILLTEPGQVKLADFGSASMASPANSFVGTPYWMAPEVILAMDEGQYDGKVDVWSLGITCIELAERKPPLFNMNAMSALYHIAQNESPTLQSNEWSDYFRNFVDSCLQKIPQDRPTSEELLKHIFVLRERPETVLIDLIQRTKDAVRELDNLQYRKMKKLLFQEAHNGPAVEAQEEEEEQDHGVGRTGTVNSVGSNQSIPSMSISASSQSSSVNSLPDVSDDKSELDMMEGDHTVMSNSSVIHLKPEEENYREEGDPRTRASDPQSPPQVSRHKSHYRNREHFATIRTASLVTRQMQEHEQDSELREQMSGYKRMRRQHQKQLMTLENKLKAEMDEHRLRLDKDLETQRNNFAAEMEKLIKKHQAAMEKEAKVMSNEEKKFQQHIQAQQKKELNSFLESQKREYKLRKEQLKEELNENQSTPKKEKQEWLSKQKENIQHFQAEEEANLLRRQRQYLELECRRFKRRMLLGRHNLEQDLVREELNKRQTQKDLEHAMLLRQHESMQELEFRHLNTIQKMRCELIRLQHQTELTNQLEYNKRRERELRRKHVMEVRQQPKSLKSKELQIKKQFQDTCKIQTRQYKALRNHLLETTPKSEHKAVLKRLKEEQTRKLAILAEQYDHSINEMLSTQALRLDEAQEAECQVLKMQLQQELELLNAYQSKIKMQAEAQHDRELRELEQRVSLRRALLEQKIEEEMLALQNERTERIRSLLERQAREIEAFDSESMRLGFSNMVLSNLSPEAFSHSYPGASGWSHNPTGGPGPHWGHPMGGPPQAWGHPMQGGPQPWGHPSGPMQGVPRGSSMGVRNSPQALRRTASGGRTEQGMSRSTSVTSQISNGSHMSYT

[8] = biological target: Tyrosine-protein kinase ABL1 (Homo sapiens, UniProt P00519); format: functional
[9] = biological target: Vascular endothelial growth factor receptor 2 (Homo sapiens, UniProt P35968); format: functional
Sequence of Vascular endothelial growth factor receptor 2 (P35968 whole entry): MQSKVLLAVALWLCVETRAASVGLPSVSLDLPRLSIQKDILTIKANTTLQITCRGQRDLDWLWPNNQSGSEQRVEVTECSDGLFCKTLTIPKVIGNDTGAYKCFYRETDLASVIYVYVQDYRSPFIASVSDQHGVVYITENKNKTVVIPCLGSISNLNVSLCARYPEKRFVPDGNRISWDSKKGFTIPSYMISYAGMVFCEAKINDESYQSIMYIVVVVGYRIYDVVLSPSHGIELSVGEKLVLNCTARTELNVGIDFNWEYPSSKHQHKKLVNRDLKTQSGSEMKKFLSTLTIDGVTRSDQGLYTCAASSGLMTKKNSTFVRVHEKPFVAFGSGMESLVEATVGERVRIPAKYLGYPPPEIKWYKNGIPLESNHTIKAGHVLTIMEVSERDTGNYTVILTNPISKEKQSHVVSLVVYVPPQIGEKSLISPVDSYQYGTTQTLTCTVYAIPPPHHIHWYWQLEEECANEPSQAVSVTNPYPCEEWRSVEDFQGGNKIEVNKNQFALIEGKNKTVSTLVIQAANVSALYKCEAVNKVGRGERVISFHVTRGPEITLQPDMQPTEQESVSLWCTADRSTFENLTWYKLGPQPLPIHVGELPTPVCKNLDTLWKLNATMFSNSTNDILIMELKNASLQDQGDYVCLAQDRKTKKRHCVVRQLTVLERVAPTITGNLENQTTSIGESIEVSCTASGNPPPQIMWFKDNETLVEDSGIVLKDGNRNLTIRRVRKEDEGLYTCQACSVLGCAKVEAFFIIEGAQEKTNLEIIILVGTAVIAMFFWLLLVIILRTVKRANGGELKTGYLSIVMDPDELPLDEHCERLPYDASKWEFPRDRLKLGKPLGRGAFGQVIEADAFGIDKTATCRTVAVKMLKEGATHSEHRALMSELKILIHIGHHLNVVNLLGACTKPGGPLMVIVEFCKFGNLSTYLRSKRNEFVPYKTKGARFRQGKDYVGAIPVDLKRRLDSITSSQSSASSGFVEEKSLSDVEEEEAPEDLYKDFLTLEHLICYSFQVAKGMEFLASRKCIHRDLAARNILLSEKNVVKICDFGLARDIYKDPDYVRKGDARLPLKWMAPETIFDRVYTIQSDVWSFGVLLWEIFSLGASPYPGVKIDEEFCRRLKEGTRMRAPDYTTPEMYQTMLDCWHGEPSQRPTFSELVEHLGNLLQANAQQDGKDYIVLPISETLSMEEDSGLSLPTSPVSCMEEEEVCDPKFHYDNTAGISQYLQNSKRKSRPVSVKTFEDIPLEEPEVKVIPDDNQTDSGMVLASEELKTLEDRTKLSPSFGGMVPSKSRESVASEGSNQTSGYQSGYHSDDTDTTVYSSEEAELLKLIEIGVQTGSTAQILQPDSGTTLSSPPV

[10] = biological target: Misshapen-like kinase 1 (Homo sapiens, UniProt Q8N4C8); format: functional;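 also: kinome panel screen with MINK as the panel member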
[11] = biological target: Focal adhesion kinase 1 (Homo sapiens, UniProt Q05397); format: functional;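 also: measured as one member of a kinome panel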
[12] = biological target: Tyrosine-protein kinase Fyn (Homo sapiens, UniProt P06241); format: functional
[13] = biological target: Mitogen-activated protein kinase kinase kinase kinase 4 (Homo sapiens, UniProt O95819); format: functional
[14] = biological target: Serine/threonine-protein kinase pim-1 (Homo sapiens, UniProt P11309); format: functional
Sequence of Serine/threonine-protein kinase pim-1 (P11309 whole entry): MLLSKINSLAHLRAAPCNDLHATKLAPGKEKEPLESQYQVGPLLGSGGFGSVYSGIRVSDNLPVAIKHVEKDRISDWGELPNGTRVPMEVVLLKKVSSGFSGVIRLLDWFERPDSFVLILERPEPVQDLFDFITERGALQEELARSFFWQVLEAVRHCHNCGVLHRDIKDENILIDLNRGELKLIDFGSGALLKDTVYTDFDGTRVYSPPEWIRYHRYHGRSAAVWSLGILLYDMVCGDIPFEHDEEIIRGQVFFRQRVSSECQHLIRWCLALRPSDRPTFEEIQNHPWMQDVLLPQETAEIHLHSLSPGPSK

[15] = biological target: Cell division cycle 7-related protein kinase (Homo sapiens, UniProt O00311); format: functional;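 also: value obtained from a kinome-wide kinase panel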
[16] = biological target: Homeodomain-interacting protein kinase 2 (Homo sapiens, UniProt Q9H2X6); format: functional;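 also: measured within a kinome-wide kinase profiling panel, HIPK2 being one panel member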
[17] = biological target: MAP kinase-interacting serine/threonine-protein kinase 2 (Homo sapiens, UniProt Q9HBH9); format: functional
[18] = biological target: Interleukin-1 receptor-associated kinase 4 (Homo sapiens, UniProt Q9NWZ3); format: functional
[19] = biological target: Glycogen synthase kinase-3 beta (Homo sapiens, UniProt P49841); format: functional;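 also: value comes from a broad kinome profiling panel, with GSK3B as the panel member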
[20] = biological target: cAMP-dependent protein kinase catalytic subunit alpha (Homo sapiens, UniProt P17612); format: functional
[21] = biological target: Dual specificity protein kinase CLK4 (Homo sapiens, UniProt Q9HAZ1); format: functional
Sequence of Dual specificity protein kinase CLK4 (Q9HAZ1 whole entry): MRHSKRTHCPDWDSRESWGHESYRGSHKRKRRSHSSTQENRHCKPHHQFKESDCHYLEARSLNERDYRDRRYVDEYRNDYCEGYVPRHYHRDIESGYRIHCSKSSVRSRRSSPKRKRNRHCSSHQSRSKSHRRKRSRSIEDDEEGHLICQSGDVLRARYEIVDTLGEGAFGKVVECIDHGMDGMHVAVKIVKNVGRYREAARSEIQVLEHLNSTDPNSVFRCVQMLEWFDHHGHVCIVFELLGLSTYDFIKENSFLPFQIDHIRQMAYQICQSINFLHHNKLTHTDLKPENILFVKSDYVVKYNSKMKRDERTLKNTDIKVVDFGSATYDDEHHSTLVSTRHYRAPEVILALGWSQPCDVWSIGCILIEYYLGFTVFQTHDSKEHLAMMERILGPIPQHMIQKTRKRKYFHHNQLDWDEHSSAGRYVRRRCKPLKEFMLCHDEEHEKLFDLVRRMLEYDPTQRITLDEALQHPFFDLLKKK

[22] = biological target: Protein disulfide-isomerase (Homo sapiens, UniProt P07237); assay: PDI inhibitors, insulin aggregation turbidity, dose response, biochemical, absorbance, cherry-picked samples (AID 602350); format: functional
[23] = biological target: 5'-AMP-activated protein kinase catalytic subunit alpha-1 (Homo sapiens, UniProt Q13131); format: functional
[24] = biological target: ALK tyrosine kinase receptor (Homo sapiens, UniProt Q9UM73); format: functional;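 also: ALK tested as one member of a kinase panel screen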
[25] = biological target: Tyrosine-protein kinase HCK (Homo sapiens, UniProt P08631); assay: Navigating the Kinome. Panel member name: HCK; format: functional
Sequence of Tyrosine-protein kinase HCK (P08631 whole entry): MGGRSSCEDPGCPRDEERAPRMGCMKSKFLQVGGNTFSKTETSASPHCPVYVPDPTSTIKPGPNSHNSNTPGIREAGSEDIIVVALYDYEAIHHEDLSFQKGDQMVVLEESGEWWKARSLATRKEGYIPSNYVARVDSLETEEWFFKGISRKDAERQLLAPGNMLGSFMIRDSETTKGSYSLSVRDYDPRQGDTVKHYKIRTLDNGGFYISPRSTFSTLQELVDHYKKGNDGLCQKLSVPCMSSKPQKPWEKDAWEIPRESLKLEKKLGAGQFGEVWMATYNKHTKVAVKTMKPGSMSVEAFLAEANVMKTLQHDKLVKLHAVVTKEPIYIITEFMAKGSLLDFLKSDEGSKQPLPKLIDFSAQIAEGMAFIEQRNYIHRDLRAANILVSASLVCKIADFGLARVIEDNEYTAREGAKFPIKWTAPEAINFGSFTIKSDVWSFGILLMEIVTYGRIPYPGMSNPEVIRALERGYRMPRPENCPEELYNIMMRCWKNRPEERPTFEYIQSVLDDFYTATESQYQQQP

[26] = biological target: Serine/threonine-protein kinase D3 (Homo sapiens, UniProt O94806); format: functional;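 also: determined within a kinase panel screen, with PRKCN as the panel member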
[27] = biological target: Death-associated protein kinase 3 (Homo sapiens, UniProt O43293); format: functional;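 also: measured as one member of a kinome-wide profiling panel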
[28] = biological target: LIM domain kinase 1 (Homo sapiens, UniProt P53667); assay: Navigating the Kinome. Panel member name: LIMK1; format: functional
[29] = biological target: Proto-oncogene tyrosine-protein kinase ROS (Homo sapiens, UniProt P08922); format: functional;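 also: ROS1 tested as one member of a kinome-wide kinase panel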
[30] = biological target: Calcium/calmodulin-dependent protein kinase kinase 2 (Homo sapiens, UniProt Q96RR4); assay: Navigating the Kinome. Panel member name: CAMKK2; format: functional
[31] = biological target: Glycogen synthase kinase-3 alpha (Homo sapiens, UniProt P49840); format: functional;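 also: GSK3A result taken from a broad kinome-wide kinase panel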
[32] = biological target: Mitogen-activated protein kinase kinase kinase kinase 2 (Homo sapiens, UniProt Q12851); format: functional;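 also: measured as one member of a kinome-wide kinase panel, with MAP4K2 as the panel entry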
[33] = biological target: Platelet-derived growth factor receptor beta (Homo sapiens, UniProt P09619); format: functional;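 also: value comes from a kinome panel, with PDGFRB tested as one panel member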
[34] = biological target: Cyclin-dependent kinase 5 (Homo sapiens, UniProt Q00535); format: functional;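 also: CDK5 measured as one member of a kinase profiling panel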
[35] = biological target: T1, cAMP-dependent protein kinase catalytic subunit PRKX (Homo sapiens, UniProt P51817); format: functional
T1 sequence (P51817 whole entry): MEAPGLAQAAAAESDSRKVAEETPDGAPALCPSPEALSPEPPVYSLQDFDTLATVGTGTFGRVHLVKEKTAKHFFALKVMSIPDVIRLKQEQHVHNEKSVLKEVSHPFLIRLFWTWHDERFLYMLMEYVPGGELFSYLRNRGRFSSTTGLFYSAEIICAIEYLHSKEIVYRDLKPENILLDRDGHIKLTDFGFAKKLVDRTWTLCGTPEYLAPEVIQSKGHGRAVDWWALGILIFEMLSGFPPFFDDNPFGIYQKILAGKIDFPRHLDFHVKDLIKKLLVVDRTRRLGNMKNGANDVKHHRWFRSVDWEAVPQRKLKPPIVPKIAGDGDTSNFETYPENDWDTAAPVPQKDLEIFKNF

[36] = biological target: Maternal embryonic leucine zipper kinase (Homo sapiens, UniProt Q14680); format: functional
[37] = biological target: Platelet-derived growth factor receptor alpha (Homo sapiens, UniProt P16234); assay: Navigating the Kinome. Panel member name: PDGFRA; format: functional
[38] = biological target: Aurora kinase B (Homo sapiens, UniProt Q96GD4); format: functional
[39] = biological target: Rho-associated protein kinase 1 (Homo sapiens, UniProt Q13464); format: functional;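 also: measured within a broad kinome-wide panel profiling many kinases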
[40] = biological target: Cyclin-dependent kinase 7 (Homo sapiens, UniProt P50613); format: functional;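 also: value comes from a kinome-wide kinase profiling panel in which CDK7 is one member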
[41] = biological target: Vascular endothelial growth factor receptor 1 (Homo sapiens, UniProt P17948); format: functional;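 also: measured within a kinome-wide profiling panel, FLT1 as the panel member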
[42] = biological target: Cyclin-dependent kinase 9 (Homo sapiens, UniProt P50750); format: functional;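 also: value from the CDK9 entry of a kinome-spanning kinase panel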
Sequence of Cyclin-dependent kinase 9 (P50750 whole entry): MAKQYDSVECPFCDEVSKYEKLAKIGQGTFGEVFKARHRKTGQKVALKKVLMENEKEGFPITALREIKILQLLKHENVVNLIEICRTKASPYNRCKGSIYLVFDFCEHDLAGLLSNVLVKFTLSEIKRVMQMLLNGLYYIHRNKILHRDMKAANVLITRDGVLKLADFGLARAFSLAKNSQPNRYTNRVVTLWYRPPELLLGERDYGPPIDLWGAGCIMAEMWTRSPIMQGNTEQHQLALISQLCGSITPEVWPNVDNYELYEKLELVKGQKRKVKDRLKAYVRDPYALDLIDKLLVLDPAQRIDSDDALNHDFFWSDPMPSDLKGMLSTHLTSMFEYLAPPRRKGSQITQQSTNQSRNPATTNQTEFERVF

[43] = biological target: Macrophage-stimulating protein receptor (Homo sapiens, UniProt Q04912); assay: Navigating the Kinome. Panel member name: MST1R; format: functional
[44] = biological target: Leukocyte tyrosine kinase receptor (Homo sapiens, UniProt P29376); assay: Navigating the Kinome. Panel member name: LTK; format: functional
[45] = biological target: Serine/threonine-protein kinase 3 (Homo sapiens, UniProt Q13188); format: functional;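 also: measured as one member of a kinome-wide kinase panel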

With `CS(=O)(=O)Nc1cccc(NC(=O)c2cccc3c(-c4cccc(C(N)=O)c4)coc23)c1` the IC50 [1] was > 79000 nM (inactive), the IC50 [2] was > 64600 nM (inactive) and the IC50 [3] was > 64600 nM (inactive).
For `CN(C)c1c(NC(=O)c2c(F)cccc2F)cccc1-c1nc2sccn2c1-c1ccnc(Nc2cccc(N3CCOCC3)c2)n1`, the Ki [4] was 501 nM (active), the Ki [5] was > 6310 nM (inactive) and the Ki [6] was > 5010 nM (inactive). For the same compound, the Ki [7] was > 6310 nM (inactive), the Ki [8] was 501 nM (active) and the Ki [9] was 2000 nM (active). For the same compound, the Ki [10] was > 5010 nM (inactive), the Ki [11] was > 6310 nM (inactive) and the Ki [12] was > 6310 nM (inactive). The Ki [13] was 1260 nM (active).
In the case of `Cc1cccc(CNc2cc(-c3c[nH]c4ncccc34)ncn2)c1`, the Ki [14] is reported as 126 nM (active), the Ki [15] is reported as 2.51 nM (active) and the Ki [16] is reported as 158 nM (active). For the same compound, the Ki [17] was 158 nM (active), the Ki [18] was 501 nM (active) and the Ki [19] was 7.94 nM (active). The Ki [20] was 158 nM (active) and the Ki [21] was 6.31 nM (active).
For `CCN1C[C@]2(COC(=O)c3ccccc3N)CC[C@H](OC)C34[C@@H]5C[C@H]6[C@H](OC)[C@@H]5[C@](O)(C[C@@H]6OC)[C@@](O)([C@H]13)[C@@H](OC)[C@@H]42`, the AC50 [22] was 19500 nM (active).
In the case of `CCN1CCN(Cc2ccc(NC(=O)Nc3ccc(Oc4cc(NC)ncn4)cc3)cc2C(F)(F)F)CC1` [AST-487], the Ki [23] is reported as > 3160 nM (inactive), the Ki [24] is reported as > 6310 nM (inactive) and the Ki [25] is reported as 100 nM (active). The Ki [26] was > 3980 nM (inactive), the Ki [27] was 3980 nM (active) and the Ki [28] was > 3160 nM (inactive). The Ki [29] was 2000 nM (active), the Ki [30] was 794 nM (active) and the Ki [31] was > 3980 nM (inactive). The Ki [32] was 79.4 nM (active), the Ki [33] was 7.94 nM (active) and the Ki [9] was 2.51 nM (active). The Ki [34] was > 3160 nM (inactive), the Ki [35] was > 3160 nM (inactive) and the Ki [36] was 126 nM (active). For the same compound, the Ki [37] was 79.4 nM (active), the Ki [38] was > 3980 nM (inactive) and the Ki [39] was > 3980 nM (inactive). The Ki [40] was > 5010 nM (inactive), the Ki [41] was 31.6 nM (active) and the Ki [42] was > 1580 nM (inactive). For the same compound, the Ki [43] was > 3980 nM (inactive), the Ki [44] was 631 nM (active) and the Ki [45] was > 2510 nM (inactive).
